Source: patent US9005575B2, “Arg-Gly-Asp-conjugated alpha-melanocyte stimulating hormone hybrid peptide for use in diagnosing and treating melanoma, including metastatic melanoma and methods related to same” (STC.UNM, priority 2009, dated 2015)
Like-named read-outs stand apart in the source and are kept apart here. Positions of bridges follow the written chain, without caps; N, C: chain ends. Non-standard residues stand in square brackets, D forms with d. Residues, ends and D or L forms follow the SMILES beside them.

Experiment: Biodistribution in B16/F1 melanoma-bearing C57 mice
Assay type: in vivo
Conditions: female, C57, mouse, iv, total radioactivity; for tissue uptake at 2 h / tissue uptake dose at 2 h: 2 h post-injection
Protocol: All the animal studies were conducted in compliance with Institutional Animal Care and Use Committee approval. The pharmacokinetics of ^99mTc-RGD-Lys-(Arg^11)CCMSH was determined in B16/F1 melanoma-bearing C57 female mice (Harlan, Indianapolis, Ind.). C57 mice were subcutaneously inoculated on the right flank with 1×10^6 B16/F1 cells. The weight of tumors reached approximately 0.2 g 10 days post cell inoculation. Each melanoma-bearing mouse was injected with 0.037 MBq of ^99mTc-RGD-Lys-(Arg^11)CCMSH via the tail vein. Groups of 5 mice were sacrificed at 0.5, 2, 4 and 24 h post-injection, and tumors and organs of interest were harvested, weighed and counted. Blood values were taken as 6.5% of the whole-body weight. The MC1 receptor specificity of the tumor uptake was determined at 2 h post-injection by co-injecting ^99mTc-RGD-Lys-(Arg^11)CCMSH with 10 μg (6.1 nmol) of unlabeled NDP-MSH, a linear α-MSH peptide analogue with picomolar affinity for the MC1 receptors present on murine melanoma cells. The co-injection of 3.5 μg (6.1 nmol) of RGD peptide was performed to determine the αvβ3 integrin specificity of the tumor uptake 2 h post-injection. Statistical analysis was performed using the Student's t-test for unpaired data.
All the animal studies were conducted in compliance with Institutional Animal Care and Use Committee approval. The pharmacokinetics of ^99mTc-RGD-Arg-(Arg^11)CCMSH was determined in B16/F1 melanoma-bearing C57 female mice (Harlan, Indianapolis, Ind.). C57 mice were subcutaneously inoculated on the right flank with 1×10^6 B16/F1 cells. The weight of tumors reached approximately 0.2 g 10 days post cell inoculation. Each melanoma-bearing mouse was injected with 0.037 MBq of ^99mTc-RGD-Arg-(Arg^11)CCMSH via the tail vein. Groups of 5 mice were sacrificed at 0.5, 2, 4 and 24 h post-injection, and tumors and organs of interest were harvested, weighed and counted. Blood values were taken as 6.5% of the whole-body weight. The MC1 receptor specificity of the tumor uptake was determined at 2 h post-injection by co-injecting ^99mTc-RGD-Arg-(Arg^11)CCMSH with 10 μg (6.1 nmol) of unlabeled NDP-MSH. The co-injection of 3.5 μg (6.1 nmol) of RGD peptide was performed to determine the αvβ3 integrin specificity of the tumor uptake at 2 h post-injection.

tissue uptake at 0.5 h (blood, 0.037 MBq, 0.5 h post-injection, read-out: Blood, Percentage Injected Dose/gram): 3.64 ± 0.69 %ID/g | tissue uptake at 2 h (blood, 0.037 MBq, read-out: Blood, Percentage Injected Dose/gram): 0.55 ± 0.47 %ID/g | tissue uptake at 4 h (blood, 0.037 MBq, 4 h post-injection, read-out: Blood, Percentage Injected Dose/gram): 0.71 ± 0.41 %ID/g | tissue uptake at 24 h (blood, 0.037 MBq, 24 h post-injection, read-out: Blood, Percentage Injected Dose/gram): 0.24 ± 0.14 %ID/g | tissue uptake at 2 h (blood, NDP blockade (10 μg NDP-MSH co-injected), read-out: Blood, Percentage Injected Dose/gram): 0.47 ± 0.29 %ID/g | tissue uptake at 2 h (blood, RGD blockade (3.5 μg RGD co-injected), read-out: Blood, Percentage Injected Dose/gram): 0.04 ± 0.01 %ID/g | tissue uptake at 0.5 h (bone, 0.037 MBq, 0.5 h post-injection, read-out: Bone, Percentage Injected Dose/gram): 2.01 ± 0.19 %ID/g | tissue uptake at 2 h (bone, 0.037 MBq, read-out: Bone, Percentage Injected Dose/gram): 0.57 ± 0.15 %ID/g | tissue uptake at 4 h (bone, 0.037 MBq, 4 h post-injection, read-out: Bone, Percentage Injected Dose/gram): 0.97 ± 0.22 %ID/g | tissue uptake at 24 h (bone, 0.037 MBq, 24 h post-injection, read-out: Bone, Percentage Injected Dose/gram): 0.9 ± 0.39 %ID/g | tissue uptake at 2 h (bone, NDP blockade (10 μg NDP-MSH co-injected), read-out: Bone, Percentage Injected Dose/gram): 0.98 ± 0.39 %ID/g | tissue uptake at 2 h (bone, RGD blockade (3.5 μg RGD co-injected), read-out: Bone, Percentage Injected Dose/gram): 0.52 ± 0.42 %ID/g | tissue uptake at 0.5 h (brain, 0.037 MBq, 0.5 h post-injection, read-out: Brain, Percentage Injected Dose/gram): 0.16 ± 0.02 %ID/g | tissue uptake at 2 h (brain, 0.037 MBq, read-out: Brain, Percentage Injected Dose/gram): 0.06 ± 0.02 %ID/g | tissue uptake at 4 h (brain, 0.037 MBq, 4 h post-injection, read-out: Brain, Percentage Injected Dose/gram): 0.04 ± 0.03 %ID/g | tissue uptake at 24 h (brain, 0.037 MBq, 24 h post-injection, read-out: Brain, Percentage Injected Dose/gram): 0.06 ± 0.02 %ID/g | tissue uptake at 2 h (brain, NDP blockade (10 μg NDP-MSH co-injected), read-out: Brain, Percentage Injected Dose/gram): 0.06 ± 0.01 %ID/g | tissue uptake at 2 h (brain, RGD blockade (3.5 μg RGD co-injected), read-out: Brain, Percentage Injected Dose/gram): 0.04 ± 0.01 %ID/g | tissue uptake at 0.5 h (heart, 0.037 MBq, 0.5 h post-injection, read-out: Heart, Percentage Injected Dose/gram): 2.36 ± 0.37 %ID/g | tissue uptake at 2 h (heart, 0.037 MBq, read-out: Heart, Percentage Injected Dose/gram): 0.73 ± 0.27 %ID/g | tissue uptake at 4 h (heart, 0.037 MBq, 4 h post-injection, read-out: Heart, Percentage Injected Dose/gram): 0.53 ± 0.19 %ID/g | tissue uptake at 24 h (heart, 0.037 MBq, 24 h post-injection, read-out: Heart, Percentage Injected Dose/gram): 0.34 ± 0.07 %ID/g | tissue uptake at 2 h (heart, with RGD peptide, 3.5 μg (6.1 nmol) co-injected, RGD blockade (3.5 μg RGD co-injected), read-out: Heart, Percentage Injected Dose/gram): 0.55 ± 0.22 %ID/g | tissue uptake at 2 h (heart, with unlabeled NDP-MSH, 10 μg (6.1 nmol) co-injected, NDP blockade (10 μg NDP-MSH co-injected), read-out: Heart, Percentage Injected Dose/gram): 0.61 ± 0.21 %ID/g | tissue uptake dose at 0.5 h (intestines, 0.037 MBq, 0.5 h post-injection, read-out: Intestines, Percentage Injected Dose): 3.19 ± 0.22 %ID | tissue uptake dose at 2 h (intestines, 0.037 MBq, read-out: Intestines, Percentage Injected Dose): 2.57 ± 0.58 %ID | tissue uptake dose at 4 h (intestines, 0.037 MBq, 4 h post-injection, read-out: Intestines, Percentage Injected Dose): 2.62 ± 0.57 %ID | tissue uptake dose at 24 h (intestines, 0.037 MBq, 24 h post-injection, read-out: Intestines, Percentage Injected Dose): 1.01 ± 0.11 %ID | tissue uptake dose at 2 h (intestines, NDP blockade (10 μg NDP-MSH co-injected), read-out: Intestines, Percentage Injected Dose): 2.34 ± 0.52 %ID | tissue uptake dose at 2 h (intestines, RGD blockade (3.5 μg RGD co-injected), read-out: Intestines, Percentage Injected Dose): 1.79 ± 0.58 %ID | tissue uptake at 0.5 h (kidneys, 0.037 MBq, 0.5 h post-injection, read-out: Kidneys, Percentage Injected Dose/gram): 37.2 ± 4.72 %ID/g | tissue uptake at 2 h (kidneys, 0.037 MBq, read-out: Kidneys, Percentage Injected Dose/gram): 43 ± 8.14 %ID/g | tissue uptake at 4 h (kidneys, 0.037 MBq, 4 h post-injection, read-out: Kidneys, Percentage Injected Dose/gram): 36.6 ± 11.7 %ID/g | tissue uptake at 24 h (kidneys, 0.037 MBq, 24 h post-injection, read-out: Kidneys, Percentage Injected Dose/gram): 16.2 ± 4.01 %ID/g | tissue uptake at 2 h (kidneys, NDP blockade (10 μg NDP-MSH co-injected), read-out: Kidneys, Percentage Injected Dose/gram): 34.8 ± 8.46 %ID/g | tissue uptake at 2 h (kidneys, RGD blockade (3.5 μg RGD co-injected), read-out: Kidneys, Percentage Injected Dose/gram): 38.5 ± 7.45 %ID/g | tissue uptake at 0.5 h (liver, 0.037 MBq, 0.5 h post-injection, read-out: Liver, Percentage Injected Dose/gram): 4.21 ± 1.04 %ID/g | tissue uptake at 2 h (liver, 0.037 MBq, read-out: Liver, Percentage Injected Dose/gram): 3.58 ± 1.08 %ID/g | tissue uptake at 4 h (liver, 0.037 MBq, 4 h post-injection, read-out: Liver, Percentage Injected Dose/gram): 4.93 ± 0.38 %ID/g | tissue uptake at 24 h (liver, 0.037 MBq, 24 h post-injection, read-out: Liver, Percentage Injected Dose/gram): 1.89 ± 0.36 %ID/g | tissue uptake at 2 h (liver, NDP blockade (10 μg NDP-MSH co-injected), read-out: Liver, Percentage Injected Dose/gram): 2.87 ± 0.34 %ID/g | tissue uptake at 2 h (liver, RGD blockade (3.5 μg RGD co-injected), read-out: Liver, Percentage Injected Dose/gram): 2.3 ± 0.22 %ID/g | tissue uptake at 0.5 h (lung, 0.037 MBq, 0.5 h post-injection, read-out: Lung, Percentage Injected Dose/gram): 7.55 ± 1.29 %ID/g | tissue uptake at 2 h (lung, 0.037 MBq, read-out: Lung, Percentage Injected Dose/gram): 2.05 ± 0.52 %ID/g | tissue uptake at 4 h (lung, 0.037 MBq, 4 h post-injection, read-out: Lung, Percentage Injected Dose/gram): 1.01 ± 0.41 %ID/g | tissue uptake at 24 h (lung, 0.037 MBq, 24 h post-injection, read-out: Lung, Percentage Injected Dose/gram): 0.76 ± 0.14 %ID/g | tissue uptake at 2 h (lung, NDP blockade (10 μg NDP-MSH co-injected), read-out: Lung, Percentage Injected Dose/gram): 1.42 ± 0.31 %ID/g | tissue uptake at 2 h (lung, RGD blockade (3.5 μg RGD co-injected), read-out: Lung, Percentage Injected Dose/gram): 1.21 ± 0.5 %ID/g | tissue uptake at 0.5 h (muscle, 0.037 MBq, 0.5 h post-injection, read-out: Muscle, Percentage Injected Dose/gram): 1.79 ± 1.14 %ID/g | tissue uptake at 2 h (muscle, 0.037 MBq, read-out: Muscle, Percentage Injected Dose/gram): 0.21 ± 0.12 %ID/g | tissue uptake at 4 h (muscle, 0.037 MBq, 4 h post-injection, read-out: Muscle, Percentage Injected Dose/gram): 0.32 ± 0.25 %ID/g | tissue uptake at 24 h (muscle, 0.037 MBq, 24 h post-injection, read-out: Muscle, Percentage Injected Dose/gram): 0.25 ± 0.05 %ID/g | tissue uptake at 2 h (muscle, NDP blockade (10 μg NDP-MSH co-injected), read-out: Muscle, Percentage Injected Dose/gram): 0.5 ± 0.12 %ID/g | tissue uptake at 2 h (muscle, RGD blockade (3.5 μg RGD co-injected), read-out: Muscle, Percentage Injected Dose/gram): 0.28 ± 0.2 %ID/g | tissue uptake (normal organs except kidneys, 0.037 MBq, after 2 h post-injection, read-out: Normal organ uptakes except for the kidneys): < 3.6 %ID/g | tissue uptake at 0.5 h (pancreas, 0.037 MBq, 0.5 h post-injection, read-out: Pancreas, Percentage Injected Dose/gram): 1.02 ± 0.36 %ID/g | tissue uptake at 2 h (pancreas, 0.037 MBq, read-out: Pancreas, Percentage Injected Dose/gram): 0.36 ± 0.2 %ID/g | tissue uptake at 4 h (pancreas, 0.037 MBq, 4 h post-injection, read-out: Pancreas, Percentage Injected Dose/gram): 0.37 ± 0.12 %ID/g | tissue uptake at 24 h (pancreas, 0.037 MBq, 24 h post-injection, read-out: Pancreas, Percentage Injected Dose/gram): 0.19 ± 0.09 %ID/g | tissue uptake at 2 h (pancreas, NDP blockade (10 μg NDP-MSH co-injected), read-out: Pancreas, Percentage Injected Dose/gram): 0.37 ± 0.22 %ID/g | tissue uptake at 2 h (pancreas, RGD blockade (3.5 μg RGD co-injected), read-out: Pancreas, Percentage Injected Dose/gram): 0.32 ± 0.17 %ID/g | tissue uptake at 0.5 h (skin, 0.037 MBq, 0.5 h post-injection, read-out: Skin, Percentage Injected Dose/gram): 4.55 ± 1.01 %ID/g
SMILES: CC(C)[C@H](NC(=O)[C@@H]1CCCN1C(=O)[C@H](CCCNC(=N)N)NC(=O)[C@H](CS)NC(=O)[C@H](Cc1c[nH]c2ccccc12)NC(=O)[C@H](CCCNC(=N)N)NC(=O)[C@@H](Cc1ccccc1)NC(=O)[C@H](Cc1c[nH]cn1)NC(=O)[C@H](CCC(=O)O)NC(=O)[C@H](CS)NC(=O)[C@H](CS)NC(=O)[C@H](CCCNC(=N)N)NC(=O)[C@@H]1CC(=O)N[C@@H](CCCNC(=N)N)C(=O)NCC(=O)N[C@@H](CC(=O)O)C(=O)N[C@H](Cc2ccc(O)cc2)C(=O)N1)C(N)=O [^99mTc-RGD-Arg-(Arg^11)CCMSH, metal not drawn] (RGD[dY]DRCCEH[dF]RWCRPV-NH2; lactam N-5)
